Measurements taken from patent publication US20140011799A1 (Bristol-Myers Squibb Company, priority 2012, published 2014).

What follows are molecules tested against T1, Endothelial lipase (EL) (Homo sapiens, UniProt Q9Y5X9) (assay: Endothelial lipase (EL) enzymatic assay, fluorescent substrate A10070 in DMPG vesicles). Conditions: EL from conditioned media of HT-1080 cells; compound preincubated 30 min at 37° C; read-out: EL IC50.
T1 construct: HT-1080 cells that were transformed using RAGE technology (Athersys) to overexpress endogenous EL; endogenous in cells; conditioned medium used
T1 sequence (Q9Y5X9 21-500): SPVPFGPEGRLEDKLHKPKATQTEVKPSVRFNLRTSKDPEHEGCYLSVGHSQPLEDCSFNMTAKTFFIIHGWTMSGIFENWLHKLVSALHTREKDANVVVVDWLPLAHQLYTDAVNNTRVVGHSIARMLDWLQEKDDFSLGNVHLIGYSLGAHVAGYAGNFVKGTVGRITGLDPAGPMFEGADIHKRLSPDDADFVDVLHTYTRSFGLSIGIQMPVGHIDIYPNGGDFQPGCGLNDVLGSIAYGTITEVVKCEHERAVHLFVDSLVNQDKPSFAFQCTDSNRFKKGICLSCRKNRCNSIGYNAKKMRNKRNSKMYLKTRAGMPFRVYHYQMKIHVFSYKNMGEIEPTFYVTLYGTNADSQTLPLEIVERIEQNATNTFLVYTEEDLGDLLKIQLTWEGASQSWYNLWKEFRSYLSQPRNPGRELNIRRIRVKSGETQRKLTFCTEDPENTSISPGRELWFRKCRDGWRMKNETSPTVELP
Format: biochemical
Method: Endothelial lipase (EL) and hepatic lipase (HL) activities were measured using a fluorescent substrate, A10070, (Invitrogen, CA) doped into an artificial vesicle containing DMPG (Avanti Polar Lipids) as the excipient. Vesicles were prepared by combining 571 μL of 29 mM DMPG in a 1:1 mixture of MeOH and CHCl3 with 2000 μL of 1 mM A10070 in a 1:1 mixture of MeOH and CHCl3. The mixture was dried under nitrogen in multiple vials then resuspended in 20 mL total volume of 50 mM HEPES pH 8.0 buffer containing 50 mM NaCl and 0.2 mM EDTA. The sample was allowed to sit at room temperature for 15 min and then was sonicated 3×4 mins on ice with a Branson Sonicator using duty cycle 1. This preparation provides vesicles with a mole fraction of 0.11 for the FRET substrate.
The enzymatic assay was measured using 384-well white Optiplates. Each well contained 20 μL of assay buffer (50 mM HEPES pH 8.0, 50 mM NaCl and 1 mM CaCl2) and 0.25 μL of a DMSO solution containing a compound of interest. EL or HL (10 μL) was added and allowed to incubate with the compound for 30 min at 37° C. The source of EL was conditioned media obtained from HT-1080 cells that were transformed using RAGE technology (Athersys) to overexpress endogenous EL, and HL was partially purified from conditioned media obtained from COS cells overexpressing HL. The reaction was started by the addition of 10 μL of a 1:10 dilution of vesicles. The final total reaction volume was […]. The reaction rates were measured on a Gemini plate reader with an excitation wavelength of 490 nm and an emission wavelength of 530 nm. Readings were taken over a period of 60 minutes, and the slope between 300 and 900 secs of the readout was used to calculate the rate of the reaction.
Work on N#CC1(NC(=O)Cc2nnc(C(c3nc4ccc(-c5ccccc5)cc4s3)S(=O)(=O)Cc3ccccc3)o2)CC1 (stereo not shown) [Example 40, 2-(5-((benzylsulfonyl)(6-phenylbenzo[d]thiazol-2-yl)methyl)-1,3,4-oxadiazol-2-yl)-N-(1-cyanocyclopropyl)acetamide] yielded an IC50 of less than 10 nM.
In the case of CC1(Cc2nnc(Cc3nc4ccc(-c5ccccc5)cc4s3)o2)NC(=O)N(CC(F)(F)F)C1=O (single isomer, unassigned; isomer b) [Example 26, 5-Methyl-5-((5-((6-phenylbenzo[d]thiazol-2-yl)methyl)-1,3,4-oxadiazol-2-yl)methyl)-3-(2,2,2-trifluoroethyl)imidazolidine-2,4-dione (Isomer B)], the IC50 is reported as less than 10 nM.
For CC1(Cc2nnc(C(c3nc4ccc(-c5ccc(C(=O)N6CCOCC6)cc5)cc4s3)S(C)(=O)=O)o2)NC(=O)NC1=O (single isomer, unassigned; isomer b) [Example 15, 5-methyl-5-((5-((methylsulfonyl)(6-(4-(morpholine-4-carbonyl)phenyl)benzo[d]thiazol-2-yl)methyl)-1,3,4-oxadiazol-2-yl)methyl)imidazolidine-2,4-dione (Isomer B)], the IC50 was 65 nM.
CC(c1nnc(CNS(N)(=O)=O)o1)c1nc2ccc(-c3ccc(F)nc3)cc2s1 (stereo not shown) [Reference 3, N-((5-(1-(6-(6-Fluoro-3-pyridinyl)-1,3-benzothiazol-2-yl)ethyl)-1,3,4-oxadiazol-2-yl)methyl)sulfamide, reference compound] showed an IC50 of 6520 nM.
NS(=O)(=O)NCc1nnc(C(c2nc3ccc(-c4ccc(Cl)cc4)cc3s2)S(=O)(=O)Cc2ccccc2)o1 (stereo not shown) [Example 126, N-((5-((benzylsulfonyl)(6-(4-chlorophenyl)-1,3-benzothiazol-2-yl)methyl)-1,3,4-oxadiazol-2-yl)methyl) sulfamide] showed an IC50 of less than 10 nM.
NS(=O)(=O)NCc1nnc(C(c2nc3ccc(-c4ccccc4)cc3s2)S(=O)(=O)CCN2C(=O)c3ccccc3C2=O)o1 (stereo not shown) [Example 52, N-[(5-{(6-phenyl-1,3-benzothiazol-2-yl) ([2-(1,3-dioxo-1,3-dihydro-2H-isoindol-2-yl)ethyl]sulfonyl)methyl}-1,3,4-oxadiazol-2-yl)methyl]sulfuric diamide] showed an IC50 of less than 10 nM.
In the case of NS(=O)(=O)Cc1nnc(C(c2nc3ccc(-c4ccccc4)cc3s2)S(=O)(=O)Cc2ccccc2)o1 (stereo not shown) [Example 37, (5-((benzylsulfonyl)(6-phenylbenzo[d]thiazol-2-yl)methyl)-1,3,4-oxadiazol-2-yl)methanesulfonamide], the IC50 is reported as less than 10 nM.
Work on NS(=O)(=O)NCc1nnc(C(c2nc3ccc(-c4ccccc4)cc3s2)S(=O)(=O)CCCC(F)(F)F)o1 (stereo not shown) [Example 63, N-[(5-{(6-phenyl-1,3-benzothiazol-2-yl) [(4,4,4-trifluorobutyl)sulfonyl]methyl}-1,3,4-oxadiazol-2-yl)methyl] sulfuric diamide] yielded an IC50 of less than 10 nM.
With NS(=O)(=O)NCc1nnc(C(c2nc3ccc(-c4ccccc4)cc3s2)S(=O)(=O)Cc2ccccc2)o1 (stereo not shown) [Example 47, N-((5-((benzylsulfonyl) (6-phenyl-1,3-benzothiazol-2-yl)methyl)-1,3,4-oxadiazol-2-yl)methyl)sulfamide] the IC50 was less than 10 nM.
For NS(=O)(=O)NCc1nnc(C(c2nc3ccc(-c4ccccc4)cc3s2)S(=O)(=O)C2CC2)o1 (stereo not shown) [Example 74, N-({5-[(cyclopropylsulfonyl) (6-phenyl-1,3-benzothiazol-2-yl)methyl]-1,3,4-oxadiazol-2-yl}methyl) sulfuric diamide], the IC50 was less than 10 nM.
CC(C)(C)OC(=O)N1CC(S(=O)(=O)C(c2nnc(CS(N)(=O)=O)o2)c2nc3ccc(-c4ccccc4)cc3s2)C1 (stereo not shown) [Example 38, tert-butyl 3-(((6-phenylbenzo[d]thiazol-2-yl)(5-(sulfamoylmethyl)-1,3,4-oxadiazol-2-yl)methyl)sulfonyl)azetidine-1-carboxylate] showed an IC50 of less than 10 nM.
Work on NS(=O)(=O)NCc1nnc(C(c2nc3ccc(-c4ccccc4)cc3s2)S(=O)(=O)Cc2ccccc2F)o1 (stereo not shown) [Example 51, N-((5-(((2-fluorobenzyl)sulfonyl)(6-phenyl-1,3-benzothiazol-2-yl)methyl)-1,3,4-oxadiazol-2-yl)methyl)sulfamide] yielded an IC50 of less than 10 nM.
With CN(C)C(=O)CCc1nnc(C(c2nc3ccc(-c4ccccc4)cc3s2)S(=O)(=O)Cc2ccccc2)o1 (stereo not shown) [Example 41, 3-(5-((benzylsulfonyl)(6-phenylbenzo[d]thiazol-2-yl)methyl)-1,3,4-oxadiazol-2-yl)-N,N-dimethylpropanamide] the IC50 was 58 nM.
For NS(=O)(=O)Cc1nnc(C(c2nc3ccc(-c4ccccc4)cc3s2)S(=O)(=O)CCC(F)(F)F)o1 (stereo not shown) [Example 35], the IC50 was less than 10 nM.
CS(=O)(=O)NCc1nnc(C(c2nc3ccc(-c4ccccc4)cc3s2)S(C)(=O)=O)o1 (stereo not shown) [Example 86, N-((5-((Methylsulfonyl)(6-phenylbenzo[d]thiazol-2-yl)methyl)-1,3,4-oxadiazol-2-yl)methyl)methanesulfonamide] gave an IC50 of 47 nM.
Work on CC1(Cc2nnc(C(c3nc4ccc(-c5ccnc(F)c5)cc4s3)S(C)(=O)=O)o2)NC(=O)NC1=O (single isomer, unassigned; isomer b) [Example 12, 5-((5-((6-(2-fluoropyridin-4-yl)benzo[d]thiazol-2-yl)(methylsulfonyl)methyl)-1,3,4-oxadiazol-2-yl)methyl)-5-methylimidazolidine-2,4-dione (Isomer B)] yielded an IC50 of 54 nM.
CN(C)C(=O)Cc1nnc(C(c2nc3ccc(-c4ccccc4)cc3s2)S(=O)(=O)Cc2ccccc2)o1 (stereo not shown) [Example 39, 2-(5-((benzylsulfonyl)(6-phenylbenzo[d]thiazol-2-yl)methyl)-1,3,4-oxadiazol-2-yl)-N,N-dimethylacetamide] gave an IC50 of 190 nM.
With CC1(Cc2nnc(C(c3nc4ccc(-c5ccnc(F)c5)cc4s3)S(C)(=O)=O)o2)NC(=O)NC1=O (single isomer, unassigned; isomer a) [Example 13, 5-((5-((6-(2-fluoropyridin-4-yl)benzo[d]thiazol-2-yl)(methylsulfonyl)methyl)-1,3,4-oxadiazol-2-yl)methyl)-5-methylimidazolidine-2,4-dione (Isomer A)] the IC50 was less than 10 nM.
For Cc1cc2nc(C(c3nnc(CC4SC(=O)NC4=O)o3)S(=O)(=O)Cc3ccccc3)sc2cc1-c1ccccc1 (stereo not shown) [Example 97, 5-((5-((benzylsulfonyl) (5-methyl-6-phenyl-benzo[d]thiazol-2-yl)methyl)-1,3,4-oxadiazol-2-yl)methyl)thiazolidine-2,4-dione], the IC50 was less than 10 nM.
With CC1(Cc2nnc(C(c3nc4ccc(-c5ccnc(F)c5)cc4s3)S(=O)(=O)Cc3ccccc3)o2)NC(=O)NC1=O (single isomer, unassigned; isomer a) [Example 9, 5-((5-((benzylsulfonyl)(6-(2-fluoropyridin-4-yl)benzo[d]thiazol-2-yl)methyl)-1,3,4-oxadiazol-2-yl)methyl)-5-methylimidazolidine-2,4-dione (Isomer A)] the IC50 was 122 nM.
NS(=O)(=O)NCc1nnc(C(c2nc3ccc(-c4ccccc4)cc3s2)S(=O)(=O)Cc2cccc(Br)c2)o1 (stereo not shown) [Example 57] was tested, and the IC50 was less than 10 nM.
Work on CS(=O)(=O)C(c1nnc(CNS(N)(=O)=O)o1)c1nc2ccc(-c3ccccc3)cc2s1 (stereo not shown) [Example 46, N-({5-[(M ethylsulfonyl)(6-phenyl-1,3-benzothiazol-2-yl)methyl]-1,3,4-oxadiazol-2-yl}methyl)sulfuric diamide] yielded an IC50 of less than 10 nM.
